Values of other authors as cited in patent publication US20240261238A1, “METHOD OF TREATING DRUG RESISTANT EPILEPSY” (ICAHN SCHOOL OF MEDICINE AT MOUNT SINAI, priority 2021, published 2024).

How the values were obtained:
NMDA receptors = settings: read-out: Ki for binding to NMDA receptors
[1] = 0.5 mg/kg intravenous infusion given over 40 minutes
[2] = intranasal for treatment of pain vs intravenous ketamine studies in depression
[3] = intranasal, total dose
[4] = iontophoretic patch, 33 men and women

| SMILES | Ki (NMDA receptors) [nM] | duration of improvements in depression [1] | serious adverse events [1] | time to improvements in depression post-injection [1] [h] | intranasal plasma levels lower than in intravenous studies [2] | dose at which mild adverse effects (dysphoria and/or hallucinations) can occur [3] | dose usually required for mild adverse effects (dysphoria and/or hallucinations) [3] | serious adverse events caused by IV administration | time by which side effects typically abate post-infusion (IV, euphoria, elevated BP, increased libido, perceptual disturbances) [min] | potency relative to racemic mixture of ketamine [4] |
| --- | --- | --- | --- | --- | --- | --- | --- | --- | --- | --- |
| CN[C@@]1(c2ccccc2Cl)CCCCC1=O [R(−)] | 1100 |  |  |  |  |  |  |  |  |  |
| CNC1(c2ccccc2Cl)CCCCC1=O (racemic) [ketamine, 2-(2-chlorophenyl)-2-(methylamino)-cyclohexanone] |  | up to 1 week | no serious adverse events | ≤ 2 | 3-4 fold | greater than 50 mg | greater than 100 mg | No serious adverse events | ≤ 80 |  |
| CN[C@]1(c2ccccc2Cl)CCCCC1=O [S(+)-ketamine] | 3200 |  |  |  |  |  |  |  |  | two times more potent |
